According to patent US11001558B2, “Asymmetric bisaminoquinolines and bisaminoquinolines with varied linkers as autophagy inhibitors for cancer and other therapy” (THE TRUSTEES OF THE UNIVERSITY OF PENNSYLVANIA, priority 2014, dated 2021):

How the values were obtained:
autophagy = details: cited from earlier work
A375 cells [1] = test: Apoptosis by annexin V detection; details: for apoptosis (annexin V): 1 uM compound, 24 hour timepoint
Procedure: (C) Apoptosis reflected by annexin V detection in A375 cells treated with 1 uM compound at the 24 hours. (D) Apoptosis reflected by annexin V detection in A375 cells treated with indicated compounds at 3 uM for 24 or 48 hours.

[2] = test system: A375P mCherry-eGFP-LC3 cells; test: Flow cytometry green/red ratio, inhibition of autophagic flux; assay type: cell-based; details: for inhibition of autophagic flux (green/red ratio): 1 uM compound, 24 hours
Text: PLX: PLX4720; TRA: trametinib.

A375P melanoma cells = test: 72 hour alamar blue viability assay; assay type: cell-based; details: spermine or spermidine linker compared with Lys01
Procedure: […]. A375 P cells seeded in a 384 well format were treated with a 10 point dilution of concentrations (0.01 nM-10 uM) (B) Colony formation assay in soft agar. Cells from the indicated melanoma (A375, WM983B, SKMEL5) and pancreatic cancer (PANC1, CAPAN1) cell lines were plated in soft agar. Medium with compound was changed every 48 hours. Crystal violet staining was used to visualize formed colonies after 2 weeks.
A375P melanoma cells were plated in a 384 well format and treated with increasing concentrations of […] derivatives. After 72 hours the cells were analyzed by alamar blue. Complete data is in Table 1, FIG. 10. (A) IC50 according to symmetry of linker (B) IC50 by linker length.
[…]. After 72 hours incubation at 37 degrees, Alamar blue was applied and viability was determined using absorbance. Absorbance was normalized to DMSO control, and a log IC50 was estimated using Graphpad Prism software.
. After 72 hours incubation at 37 degrees, Alamar blue was applied and viability was determined using absorbance. Absorbance was normalized to DMSO control, and a log IC50 was estimated using Graphpad Prism software (FIG. 11, Table 1). LN229 cells produced similar data (data not shown). The increased cytotoxicity of longer linker and asymmetric compounds was confirmed in a 2 week colony formation assay using 5 different cell lines (FIG. 1B). Analysis of the cytotoxicity findings alone elucidated some key features of potential structure activity relationships. First, substitution of the central nitrogen substitution beyond methyl reduces activity. Second, there was no clear advantage of assymetric versus symmetric linkers (FIG. 2A) with regards to cytotoxicity alone. […]

A375 cells [3] = test: Flow cytometry quantification of reactive oxygen species (DHR_123 fluorescence); details: 1 uM compound, 24 hours
melanoma cell lines = test: LC3B and actin immunoblotting (LC3II/actin quantification); details: 1 uM, 24 hours, 3 melanoma cell lines, compared with Lys05
Procedure: Each compound was administered at 1 uM concentrations for 24 hours.
As an initial method of determining the effects of the longer linker compounds on autophagic vesicle accumulation, a series of most cytotoxic dimeric CQ's were used to treat 3 different cell lines (1 uM, 24 hours). Cell lysates were collected and immunoblotting against LC3 and actin as performed (FIG. 4).

[4] = test system: A375P mCherry eGFP-LC3 cells grown into 3 dimensional spheroids; test: 3D spheroid growth and invasion in collagen; assay type: cell-based; details: 3 uM, 72 hours
Procedure: A375P mCherry eGFP-LC3 cells grown into 3 dimensional spheroids and implanted in collagen. After 72 hours of treatment with 3 uM of indicated compound, cells were counterstained with DAPI. (A) fluorescence microscopy was used to visualize autophagy inhibition (bright areas), inhibition of invasion into the collagen and (B) quantification of the DAPI fluorescence indicative of cell death. *p<0.05
The 3D spheroid model has been used extensively to mimic the tumor microenvironment (Ma et al Clin Can Research 2011). Autophagy levels are more reflective of in vivo autophagy dynamics in the 3D models compared to traditional two dimensional cell culture. In this format cancer cells are grown as spheroids and then implanted in a collagen matrix. The spheroids then begin to invade and grow within this tissue microenvironment.

CCN(CCO)CCCC(C)Nc1ccnc2cc(Cl)ccc12 (centres unmarked) [HCQ, hydroxychloroquine]
concentrations required to inhibit autophagy (autophagy): High micromolar concentrations

Clc1ccc2c(NCCCCNCCCNc3ccnc4cc(Cl)ccc34)ccnc2c1 [Lys21]
ability to induce apoptosis compared to comparable symmetric compounds (A375 cells [1]): superior | apoptosis (annexin V) (A375 cells [1]): most apoptosis | autophagy inhibition compared to comparable symmetric compounds [2]: superior autophagy inhibition | inhibition of autophagic flux (green/red ratio) [2]: most effective at inhibiting autophagic flux | potency on replacement of the Lys01 linker with longer linkers (A375P melanoma cells): significant increases in potency

CN(CCCCNc1ccnc2cc(Cl)ccc12)CCCNc1ccnc2cc(Cl)ccc12 [Lys26]
ROS (DHR_123 fluorescence) (A375 cells [3]): highest levels of ROS | potency on replacement of the Lys01 linker with longer linkers (A375P melanoma cells): significant increases in potency

CN(CCCCCCNc1ccnc2cc(Cl)ccc12)CCCCCCNc1ccnc2cc(Cl)ccc12.Cl [Lys75]
LC3II/actin (melanoma cell lines): most consistent and substantial increase | ROS (DHR_123 fluorescence) (A375 cells [3]): highest levels of ROS | apoptosis (annexin V) (A375 cells [1]): most apoptosis | inhibition of autophagic flux (green/red ratio) [2]: most effective at inhibiting autophagic flux | inhibition of growth and invasion of 3D spheroids [4]: most potent compound at inhibiting growth and invasion

CN(CCCCN(C)CCCNc1ccnc2cc(Cl)ccc12)CCCNc1ccnc2cc(Cl)ccc12 [Lys 25]
potency on replacement of the Lys01 linker with longer linkers (A375P melanoma cells): significant increases in potency
